We go through one compound from patent publication US11092602B2, “Methods and compositions relating to proteasome inhibitor resistance” (Whitehead Institute for Biomedical Research, priority 2015, dated 2021).

Test [1] concerns the target β5-subunit (Homo sapiens, UniProt P28074). The following applies: cited from earlier work.
Test [2] has as its target 20S proteasome (Homo sapiens, UniProt P28074). Kind of test: Native gel analysis of proteasomal complexes with Suc-LLVY-AMC substrate overlay. Format: biochemical. The following applies: 12 nM bortezomib for 24 hours. From the text:
We first separated 20S and 26S proteasomes on native gels and examined effects on the relative levels of 26S and 20S proteasome complexes. In cells with reduced levels of either PSMC5 or PSMD2, 26S proteasome complexes were reduced and 20S proteasome complexes were increased (FIGS. 2E and 2F). These changes persisted in the presence of bortezomib (FIGS. 2E and 2F). Next, we assayed their activity with a fluorescently labeled substrate.
Proteasomal samples were loaded on a nondenaturing 4% polyacrylamide gel using the protocol described previously (Tsvetkov et al., 2014). Gels were either overlaid with Suc-LLVY-AMC (50 μM) for assessment of proteasomal activity or transferred to nitrocellulose membranes where immunoblotting specific for proteasomal subunits was conducted. Proteasomal activity was assessed by measuring the hydrolysis of Suc-LLVY-AMC by substrate overlay assays in native polyacrylamide gels with 50 mM Tris-HCl, pH 7.8, 5 mM MgCl2, 1 mM DTT, 2 mM ATP, 50 μM Suc-LLVY-AMC peptide, and incubating the gels at 37° C. for 30-60 min. Activity was visualized by transilluminated by a UV light and photographed with BIORAD Chemidoc imaging system.

Test [3] has as its system stress-response transcripts. The experiment in a line: RNA-seq gene expression profiling of PSMD2 knockdown and control (shLacZ) cells. The test is classed as cell-based, human. To be noted: control cells; 12 nM bortezomib for 24 hours. How it is done:
Sequence data confirmed that PSMD2 mRNA levels were reduced by ˜50% in both lines. We examined basal gene expression and the effects of bortezomib treatment on these cells, comparing them to cells carrying a control lacZ shRNA construct.
RNA was extracted from triplicate samples and RNA libraries were prepared for sequencing by NEBNext Ultra RNA Library Prep Kit for Illumina (New England BioLabs, Ipswich, Mass.), including the removal of large and small RNA, synthesis of cDNA, and construction of cDNA libraries. Libraries were barcoded using NEBNext Multiplex Oligos for Illumina (NEB). Libraries were sequenced using Illumina HiSeq 2500, with paired-end 100 bp reads. Paired-end reads were aligned to UCSC human transcriptome 19 (hg19) using TopHat (Bowtie v2.0.9). Alignment quality and read distribute was assessed via SAMtools (v0.1.19) (Li et al., 2009). Transcript assembly was conducted using cufflinks (v2.2.1). […] RNA sequencing data have been deposited in the NCBI Sequence Read Archive under accession number: PRJNA281613.
Genes differentially expressed upon PSMD2 knockdown in either the presence or absence of bortezomib treatment were determined as follows (FIG. 3E): For each gene in the matrix described above, the values were normalized to the average expression in the LacZ control cells. […]

Test [4] relates to HepG2 cells. The experiment in a line: Cell viability assay (resazurin) in HepG2 cells expressing proteasome subunit shRNAs. Format: cell-based, human. An excerpt: Next, we asked if a simple reduction in the expression of 19S subunits could protect against the toxicity of proteasome inhibitors. We assembled a panel of shRNA-expressing lentiviruses targeting seventeen 19S subunits and three 20S subunits (PSMB5, PSMB7 and PSMA3). Each gene was targeted separately using four different shRNAs (FIG. 2, Table S2) and we averaged the effects on viability from these four hairpins.
For the analysis of multiple proteasome subunit knockdown 80 shRNA targeting 20 proteasome subunits (4 different shRNAs) and 13 control shRNAs (Table S2) in pLKO lentiviral vectors from the RNAi consortium shRNA library were utilized. Cells were plated in 96 wells with the volume of 100 μL media at the concentration of 2500 cells/well. 24 hours after plating media was discarded and 50 μl with 7.5-10 μg/μ1 of polybrene and 7 μl of purified virus was added. After incubation for 24 hours the media was discarded and 200 μl of fresh media with 1 μg/ml puromycin was added. Bortezomib was added where specified. pLKO lentiviral vectors from the RNAi consortium shRNA library targeting the PSMC5 and PSMD2 (Table 2) were further used to create HepG2 and T47D stably overexpressing these shRNAs by selection with puromycin 1 μg/ml for one week.
Relative cell growth and survival were measured in 96-well microplate format in the shRNA experiments and in 384 well format in the drug toxicity assays, by using the fluorescent detection of resazurin dye reduction as an endpoint (544 nm excitation and 590 nm emission). 2,500 cells in 96 wells format or 1,000 cells in 384 well format were plated 24 hours before compound exposure (for 72 hours or indicated time). Each analysis was performed at least with three replicas.

Take `CC(C)C[C@H](NC(=O)[C@H](Cc1ccccc1)NC(=O)c1cnccn1)B(O)O` [bortezomib]: the “potency of inhibition of the β5-subunit” value in test [1] is reported as “low nanomolar”. Besides, in test [2] (cells with reduced PSMC5 or PSMD2), the 20S proteasome activity result was “maintained a significant level of 20S proteasome activity”. The 20S proteasome function entry in test [2] (control cells) is given as “nearly complete inactivation of 20S proteasome function”. In test [3], the transcriptional response entry is reported as “sharp increase in stress-response transcripts”. Moreover, the “proliferation of lines stably expressing shRNA targeting PSMC5 or PSMD2” value in test [4] (HepG2, 12 nM bortezomib) is “continued proliferating”. For the same compound, the “concentration of bortezomib that completely inhibited the proliferation of control cells” value in test [4] (HepG2 control cells) amounted to 12 nM. Besides, in test [4] (HepG2 lines with shRNA-driven modest reduction in PSMD2, 4 days), the “EC50 values increased versus parental line” value is “three to six”.
